Experiments:
oat, wild = experiment: Test C postemergence; assay type: in vivo, Avena fatua
In short: (§1)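 Test chemicals in a non-phytotoxic solvent mixture with surfactant were applied to pots of plants at 2 to 18 cm (1- to 4-leaf stage) for postemergence treatment, grown in a peat-based medium with vermiculite, starter nutrients and dolomitic limestone. Preemergence treatment was to seeds freshly planted in loam soil mixed with sand.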

corn = experiment: Test A postemergence; assay type: in vivo, Zea mays; details: Zea mays, post-emergence, 240 h, 0 to 100 scale (0 no effect, 100 complete control), approx. 10 d
In short: (§2)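 Plant seeds in loam soil blended with sand, then apply test chemical preemergence as a directed soil spray; in parallel, spray potted seedlings (one- to two-leaf, 2 to 10 cm) postemergence. Both treatments use a non-phytotoxic solvent mixture with surfactant.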

foxtail, giant = experiment: Test C postemergence; assay type: in vivo, Setaria faberii
In short: as §1

barnyardgrass [1] = experiment: Test A preemergence; assay type: in vivo, Echinochloa crus-galli; details: Echinochloa crus-galli, pre-emergence, 240 h, 0 to 100 scale (0 no effect, 100 complete control), read-out: Plant response rating, Barnyardgrass
In short: as §2

morningglory = experiment: Test C postemergence; assay type: in vivo, Ipomoea coccinea
In short: as §1

waterhemp = experiment: Test C postemergence; assay type: in vivo, Amaranthus rudis
In short: as §1

barnyardgrass [2] = experiment: Test B flooded paddy test; assay type: in vivo, Echinochloa crus-galli; details: Echinochloa crus-galli, 360 h, 125 g ai/ha, applied to paddy water at 2-leaf stage, visual rating after 13 to 15 d, scale 0 (no effect) to 100 (complete control), read-out: Plant response rating, Barnyardgrass, Flood
In short: (§3)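 Pots were flooded to 3 cm above the soil at treatment, and compounds were applied directly into the paddy water. That depth was held throughout. After 13 to 15 d in a greenhouse, plants were rated visually against untreated controls.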

oilseed rape = experiment: Test C postemergence; assay type: in vivo, Brassica napus; details: Oilseed Rape
In short: as §1

sedge, umbrella = experiment: Test B flooded paddy test; assay type: in vivo, Cyperus difformis; details: Cyperus difformis, 360 h, 125 g ai/ha, applied to paddy water at 2-leaf stage, visual rating after 13 to 15 d, scale 0 (no effect) to 100 (complete control), read-out: Plant response rating, Sedge, Umbrella, Flood
In short: as §3

barnyardgrass [3] = experiment: Test A postemergence; assay type: in vivo, Echinochloa crus-galli; details: Echinochloa crus-galli, post-emergence, 240 h, 0 to 100 scale (0 no effect, 100 complete control), approx. 10 d, read-out: Plant response rating, Barnyardgrass
In short: as §2

ryegrass, Italian = experiment: Test C postemergence; assay type: in vivo, Lolium multiflorum
In short: as §1

rice = experiment: Test B flooded paddy test; assay type: in vivo, Oryza sativa; details: Oryza sativa, 360 h, 125 g ai/ha, applied to paddy water at 2-leaf stage, visual rating after 13 to 15 d, scale 0 (no effect) to 100 (complete control), read-out: Plant response rating, Rice, Flood
In short: as §3

wheat = experiment: Test A postemergence; assay type: in vivo, Triticum aestivum; details: Triticum aestivum, post-emergence, 240 h, 0 to 100 scale (0 no effect, 100 complete control), approx. 10 d, read-out: Plant response rating, Wheat
In short: as §2

pigweed = experiment: Test C postemergence; assay type: in vivo, Amaranthus retroflexus
In short: as §1

lambsquarters = experiment: Test C postemergence; assay type: in vivo, Chenopodium album
In short: as §1

chickweed = experiment: Test C postemergence; assay type: in vivo, Stellaria media
In short: as §1

blackgrass = experiment: Test C postemergence; assay type: in vivo, Alopecurus myosuroides
In short: as §1

kochia = experiment: Test C postemergence; assay type: in vivo, Kochia scoparia
In short: as §1

wheat (winter wheat) = experiment: Test C postemergence; assay type: in vivo, Triticum aestivum
In short: as §1

nutsedge, yellow = experiment: Test C postemergence; assay type: in vivo, Cyperus esculentus
In short: as §1

COc1nc(-c2ccc(F)cc2)nn1Cc1ccnc(C(F)(F)F)c1 [Compound 9, 4-[[3-(4-fluorophenyl)-5-methoxy-1H-1,2,4-triazol-1-yl]methyl]-2-(trifluoromethyl)pyridine]
95: Plant response rating (scale of 0 to 100 where 0 is no effect and 100 is complete control) (kochia; 16 g ai/ha)
70: Plant response rating (scale of 0 to 100 where 0 is no effect and 100 is complete control) (morningglory; 16 g ai/ha) | Plant response rating (scale of 0 to 100 where 0 is no effect and 100 is complete control) (waterhemp; 16 g ai/ha) | Plant response rating (scale of 0 to 100 where 0 is no effect and 100 is complete control) (oilseed rape; 125 g ai/ha) | Plant response rating (scale of 0 to 100 where 0 is no effect and 100 is complete control) (lambsquarters; 62 g ai/ha) | Plant response rating (scale of 0 to 100 where 0 is no effect and 100 is complete control) (chickweed; 16 g ai/ha)
90%: pest or weed control at 500 g/ha (barnyardgrass [3]; 500 g ai/ha)
55: Plant response rating (scale of 0 to 100 where 0 is no effect and 100 is complete control) (oilseed rape; 31 g ai/ha) | Plant response rating (scale of 0 to 100 where 0 is no effect and 100 is complete control) (lambsquarters; 31 g ai/ha)
5: Plant response rating (scale of 0 to 100 where 0 is no effect and 100 is complete control) (oat, wild; 16 g ai/ha) | Plant response rating (scale of 0 to 100 where 0 is no effect and 100 is complete control) (oat, wild; 31 g ai/ha) | Plant response rating (scale of 0 to 100 where 0 is no effect and 100 is complete control) (oat, wild; 62 g ai/ha) | Plant response rating (scale of 0 to 100 where 0 is no effect and 100 is complete control) (ryegrass, Italian; 31 g ai/ha) | Plant response rating (scale of 0 to 100 where 0 is no effect and 100 is complete control) (ryegrass, Italian; 62 g ai/ha) | Plant response rating (scale of 0 to 100 where 0 is no effect and 100 is complete control) (ryegrass, Italian; 125 g ai/ha) | Plant response rating (scale of 0 to 100 where 0 is no effect and 100 is complete control) (blackgrass; 16 g ai/ha) | Plant response rating (scale of 0 to 100 where 0 is no effect and 100 is complete control) (blackgrass; 31 g ai/ha) | Plant response rating (scale of 0 to 100 where 0 is no effect and 100 is complete control) (blackgrass; 62 g ai/ha) | Plant response rating (scale of 0 to 100 where 0 is no effect and 100 is complete control) (wheat (winter wheat); 125 g ai/ha) | Plant response rating (scale of 0 to 100 where 0 is no effect and 100 is complete control) (nutsedge, yellow; 125 g ai/ha)
90: Plant response rating (scale of 0 to 100 where 0 is no effect and 100 is complete control) (pigweed; 62 g ai/ha) | Plant response rating (scale of 0 to 100 where 0 is no effect and 100 is complete control) (kochia; 31 g ai/ha) | Plant response rating (scale of 0 to 100 where 0 is no effect and 100 is complete control) (kochia; 62 g ai/ha) | Plant response rating (scale of 0 to 100 where 0 is no effect and 100 is complete control) (kochia; 125 g ai/ha)
40%: Corn plant response rating (crop injury, 0 = no effect, 100 = complete kill) at 125 g/ha (corn; 125 g ai/ha)
85: Plant response rating (scale of 0 to 100 where 0 is no effect and 100 is complete control) (morningglory; 31 g ai/ha) | Plant response rating (scale of 0 to 100 where 0 is no effect and 100 is complete control) (waterhemp; 125 g ai/ha) | Plant response rating (scale of 0 to 100 where 0 is no effect and 100 is complete control) (pigweed; 31 g ai/ha) | Plant response rating (scale of 0 to 100 where 0 is no effect and 100 is complete control) (pigweed; 125 g ai/ha) | Plant response rating (scale of 0 to 100 where 0 is no effect and 100 is complete control) (lambsquarters; 125 g ai/ha)
0%: pest or weed control at 125 g/ha (barnyardgrass [2]) | plant injury at 125 g/ha (rice)
100%: pest or weed control at 500 g/ha (barnyardgrass [1]; 500 g ai/ha, approx. 10 d)
80: Plant response rating (scale of 0 to 100 where 0 is no effect and 100 is complete control) (morningglory; 62 g ai/ha) | Plant response rating (scale of 0 to 100 where 0 is no effect and 100 is complete control) (waterhemp; 62 g ai/ha) | Plant response rating (scale of 0 to 100 where 0 is no effect and 100 is complete control) (oilseed rape; 62 g ai/ha) | Plant response rating (scale of 0 to 100 where 0 is no effect and 100 is complete control) (chickweed; 125 g ai/ha)
75: Plant response rating (scale of 0 to 100 where 0 is no effect and 100 is complete control) (morningglory; 125 g ai/ha) | Plant response rating (scale of 0 to 100 where 0 is no effect and 100 is complete control) (pigweed; 16 g ai/ha) | Plant response rating (scale of 0 to 100 where 0 is no effect and 100 is complete control) (chickweed; 31 g ai/ha) | Plant response rating (scale of 0 to 100 where 0 is no effect and 100 is complete control) (chickweed; 62 g ai/ha)
65: Plant response rating (scale of 0 to 100 where 0 is no effect and 100 is complete control) (waterhemp; 31 g ai/ha) | Plant response rating (scale of 0 to 100 where 0 is no effect and 100 is complete control) (lambsquarters; 16 g ai/ha)
70%: pest or weed control at 125 g/ha (barnyardgrass [3]; 125 g ai/ha)
10%: plant injury at 125 g/ha (wheat; 125 g ai/ha) | plant injury at 500 g/ha (wheat; 500 g ai/ha)
40: Plant response rating (scale of 0 to 100 where 0 is no effect and 100 is complete control) (oilseed rape; 16 g ai/ha)
10: Plant response rating (scale of 0 to 100 where 0 is no effect and 100 is complete control) (oat, wild; 125 g ai/ha) | Plant response rating (scale of 0 to 100 where 0 is no effect and 100 is complete control) (foxtail, giant; 16 g ai/ha)
0: Plant response rating (scale of 0 to 100 where 0 is no effect and 100 is complete control) (ryegrass, Italian; 16 g ai/ha) | Plant response rating (scale of 0 to 100 where 0 is no effect and 100 is complete control) (wheat (winter wheat); 16 g ai/ha) | Plant response rating (scale of 0 to 100 where 0 is no effect and 100 is complete control) (wheat (winter wheat); 31 g ai/ha) | Plant response rating (scale of 0 to 100 where 0 is no effect and 100 is complete control) (wheat (winter wheat); 62 g ai/ha) | Plant response rating (scale of 0 to 100 where 0 is no effect and 100 is complete control) (nutsedge, yellow; 16 g ai/ha) | Plant response rating (scale of 0 to 100 where 0 is no effect and 100 is complete control) (nutsedge, yellow; 31 g ai/ha) | Plant response rating (scale of 0 to 100 where 0 is no effect and 100 is complete control) (nutsedge, yellow; 62 g ai/ha)
15: Plant response rating (scale of 0 to 100 where 0 is no effect and 100 is complete control) (foxtail, giant; 31 g ai/ha) | Plant response rating (scale of 0 to 100 where 0 is no effect and 100 is complete control) (foxtail, giant; 62 g ai/ha) | Plant response rating (scale of 0 to 100 where 0 is no effect and 100 is complete control) (blackgrass; 125 g ai/ha)
80%: Corn plant response rating (crop injury, 0 = no effect, 100 = complete kill) at 500 g/ha (corn; 500 g ai/ha) | pest or weed control at 125 g/ha (barnyardgrass [1]; 125 g ai/ha) | pest or weed control at 125 g/ha (sedge, umbrella)
20: Plant response rating (scale of 0 to 100 where 0 is no effect and 100 is complete control) (foxtail, giant; 125 g ai/ha)
